Laboratory results from patent US20210047324A1 (Aptinyx Inc., priority 2018, published 2021).
Read-outs that look alike come from different tables or passages of the source.

Key:
[1] = Microsomal stability (Rat); format: in vitro ADME; settings: after 60 minutes
Method: (§1) Microsomal stability of disclosed compounds was investigated. The following table indicates the percent of compound remaining after 60 minutes.

NMDAR2B = molecular target: T1, NMDAR2B (Homo sapiens, UniProt Q13224); assay: NMDAR agonist assay, [3H]MK-801 binding, NMDAR2B expressing HEK cell membranes; format: biochemical; settings: 50 μM glutamate; for EC50: read-out: NMDAR2B B: log EC50 (converted); for NMDAR2B A: % maximal [3H]MK-801 binding relative to 1 mM glycine / Emax: relative to 1 mM glycine; for Emax: read-out: NMDAR2B A: % maximal [3H]MK-801 binding relative to 1 mM glycine
T1 construct: expressed in transfected cells; host or cells: HEK cells (membrane extract)
Method: (§2) Assays were conducted as described by Moskal et al., “GLYX-13: a monoclonal antibody-derived peptide that acts as an N-methyl-D-aspartate receptor modulator,” Neuropharmacology, 49, 1077-87, 2005. These studies were designed to determine if the test compounds act to facilitate NMDAR activation in NMDAR2A, NMDAR2B, NMDAR2C or NMDAR2D expressing HEK cell membranes as measured by increases in [^3H]MK-801 binding.
(§3) In the assay, 300 μg of NMDAR expressing HEK cell membrane extract protein was preincubated for 15 minutes at […] in the presence of saturating concentrations of glutamate (50 μM) and varying concentrations of test compound (1×10^−15M-1×10^−7M), or 1 mM glycine. Following the addition of 0.3 μCi of [3H]MK-801 (22.5 Ci/mmol), reactions were again incubated for 15 minutes at 25° C. (nonequilibrium conditions). Bound and free [3H]MK-801 were separated via rapid filtration using a Brandel apparatus.
(§4) In analyzing the data, the DPM (disintegrations per minute) of [3H]MK-801 remaining on the filter were measured for each concentration of test compound or for 1 mM glycine. The DPM values for each concentration of a ligand (N=2) were averaged. The baseline value was determined from the best fit curve of the DPM values modeled using the GraphPad program and the log(agonist) vs. response (three parameters) algorithm was then subtracted from all points in the dataset. The % maximal [^3H]MK-801 binding was then calculated relative to that of 1 mM glycine: all baseline subtracted DPM values were divided by the average value for 1 mM glycine. The EC50 and % maximal activity were then obtained from the best fit curve of the % maximal [3H]MK-801 binding data modelled using the GraphPad program and the log(agonist) vs. response (three parameters) algorithm.
(§5) The tables below summarize the results for the wild type […] NMDAR2A, NMDAR2B, NMDAR2C, and NMDAR2D, and whether the compound is not an agonist (−), is an agonist (+), or is a strong agonist (++), where column A is based on the % maximal [3H]MK-801 binding relative to 1 mM glycine (−=0; <100%=+; and >100%=++); and column B is based on log EC50 values (0=−; ≥1×10^−9 M (e.g., −8)=+; and <1×10^−9 M (e.g., −10)=++).

NMDAR2A = molecular target: T2, NMDAR2A (Homo sapiens, UniProt Q12879); assay: NMDAR agonist assay, [3H]MK-801 binding, NMDAR2A expressing HEK cell membranes; format: biochemical; settings: 50 μM glutamate; for EC50: read-out: NMDAR2A B: log EC50 (converted); for Emax: 0.25 h, read-out: NMDAR2A A: % maximal [3H]MK-801 binding relative to 1 mM glycine; for NMDAR2A A: % maximal [3H]MK-801 binding relative to 1 mM glycine / Emax: relative to 1 mM glycine
T2 construct: expressed in transfected cells; host or cells: HEK cells (membrane extract)
Method: as §2, §3, §4, §5

Plasma stability (Rat) = format: in vitro ADME; settings: after 60 minutes
Method: (§6) Plasma stability of disclosed compounds was investigated. The following table indicates the percent of compound remaining after 60 minutes.

[2] = Oral pharmacokinetics in Sprague Dawley rats (plasma, brain, CSF); format: in vivo; settings: rat
Method: In another experiment, Sprague Dawley rats were dosed per os (oral gavage) using a normal saline formulation containing 10 mg/kg of the compounds identified in the table below. Plasma, brain, and CSF samples were analyzed at various time points over a 24 hour period. The table below summarizes the results of the oral pharmacokinetics, where the first three values (Tmax, Cmax and AUClast) are plasma values.

[3] = Microsomal stability (Human); format: in vitro ADME; settings: after 60 minutes
Method: as §1

Plasma stability (Human) = format: in vitro ADME; settings: after 60 minutes
Method: as §6

[4] = IV pharmacokinetics in Sprague Dawley rats; format: in vivo; settings: rat, 2 mg/kg, normal saline; for Vd: read-out: Vss
Method: Sprague Dawley rats were dosed intravenously using a normal saline formulation containing 2 mg/kg of the compounds identified in the below table. The table below summarizes the results of the IV pharmacokinetics.

[5] = Sprague-Dawley, po, per os, 10 mg/kg, plasma, read-out: Tmax
[6] = Sprague-Dawley, plasma, po, 10 mg/kg, per os
[7] = Sprague-Dawley, plasma, po, 10 mg/kg, per os 10 mg/kg
[8] = Sprague-Dawley, plasma, po, 10 mg/kg, per os, 10 mg/kg, plasma, read-out: Cmax
[9] = Sprague-Dawley, in vivo, iv, read-out: Cmax

T1 sequence (Q13224 27-1484, species assumed, other chains not shown): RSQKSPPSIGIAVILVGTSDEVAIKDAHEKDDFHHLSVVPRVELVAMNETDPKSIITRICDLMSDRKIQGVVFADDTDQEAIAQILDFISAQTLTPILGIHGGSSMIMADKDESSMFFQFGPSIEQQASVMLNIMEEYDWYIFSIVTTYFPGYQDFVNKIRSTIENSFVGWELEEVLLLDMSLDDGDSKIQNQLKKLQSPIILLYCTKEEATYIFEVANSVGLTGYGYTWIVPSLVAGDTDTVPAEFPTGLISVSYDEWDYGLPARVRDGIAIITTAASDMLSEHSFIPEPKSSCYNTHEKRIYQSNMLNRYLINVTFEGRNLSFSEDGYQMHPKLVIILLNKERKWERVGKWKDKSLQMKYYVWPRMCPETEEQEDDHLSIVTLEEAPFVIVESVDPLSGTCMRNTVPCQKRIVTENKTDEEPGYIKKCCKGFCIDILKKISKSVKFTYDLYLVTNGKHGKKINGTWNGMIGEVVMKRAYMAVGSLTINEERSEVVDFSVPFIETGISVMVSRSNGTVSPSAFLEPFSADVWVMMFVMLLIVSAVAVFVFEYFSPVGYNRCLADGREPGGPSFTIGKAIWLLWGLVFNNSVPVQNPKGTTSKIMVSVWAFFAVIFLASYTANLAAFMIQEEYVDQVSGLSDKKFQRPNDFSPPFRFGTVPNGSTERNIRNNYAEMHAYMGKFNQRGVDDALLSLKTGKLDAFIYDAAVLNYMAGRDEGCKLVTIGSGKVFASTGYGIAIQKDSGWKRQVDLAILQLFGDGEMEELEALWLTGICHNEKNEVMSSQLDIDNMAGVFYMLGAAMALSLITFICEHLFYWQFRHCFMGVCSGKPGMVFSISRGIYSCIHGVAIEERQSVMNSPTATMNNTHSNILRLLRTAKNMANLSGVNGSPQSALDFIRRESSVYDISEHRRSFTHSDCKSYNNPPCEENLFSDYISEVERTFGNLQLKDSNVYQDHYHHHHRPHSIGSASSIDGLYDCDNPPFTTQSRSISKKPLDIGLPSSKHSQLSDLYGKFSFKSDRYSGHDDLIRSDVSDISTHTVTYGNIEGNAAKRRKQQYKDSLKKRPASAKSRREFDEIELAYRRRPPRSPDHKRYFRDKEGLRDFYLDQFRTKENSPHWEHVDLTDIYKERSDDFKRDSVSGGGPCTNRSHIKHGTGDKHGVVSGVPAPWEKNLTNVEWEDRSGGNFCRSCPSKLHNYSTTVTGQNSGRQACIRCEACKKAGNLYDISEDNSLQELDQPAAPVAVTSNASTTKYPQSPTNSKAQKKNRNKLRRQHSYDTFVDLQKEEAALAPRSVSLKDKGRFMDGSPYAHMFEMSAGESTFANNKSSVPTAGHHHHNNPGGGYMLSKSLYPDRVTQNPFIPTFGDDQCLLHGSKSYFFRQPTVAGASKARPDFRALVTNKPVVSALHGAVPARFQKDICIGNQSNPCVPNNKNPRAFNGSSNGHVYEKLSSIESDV
T2 sequence (Q12879 23-1464, species assumed, other chains not shown): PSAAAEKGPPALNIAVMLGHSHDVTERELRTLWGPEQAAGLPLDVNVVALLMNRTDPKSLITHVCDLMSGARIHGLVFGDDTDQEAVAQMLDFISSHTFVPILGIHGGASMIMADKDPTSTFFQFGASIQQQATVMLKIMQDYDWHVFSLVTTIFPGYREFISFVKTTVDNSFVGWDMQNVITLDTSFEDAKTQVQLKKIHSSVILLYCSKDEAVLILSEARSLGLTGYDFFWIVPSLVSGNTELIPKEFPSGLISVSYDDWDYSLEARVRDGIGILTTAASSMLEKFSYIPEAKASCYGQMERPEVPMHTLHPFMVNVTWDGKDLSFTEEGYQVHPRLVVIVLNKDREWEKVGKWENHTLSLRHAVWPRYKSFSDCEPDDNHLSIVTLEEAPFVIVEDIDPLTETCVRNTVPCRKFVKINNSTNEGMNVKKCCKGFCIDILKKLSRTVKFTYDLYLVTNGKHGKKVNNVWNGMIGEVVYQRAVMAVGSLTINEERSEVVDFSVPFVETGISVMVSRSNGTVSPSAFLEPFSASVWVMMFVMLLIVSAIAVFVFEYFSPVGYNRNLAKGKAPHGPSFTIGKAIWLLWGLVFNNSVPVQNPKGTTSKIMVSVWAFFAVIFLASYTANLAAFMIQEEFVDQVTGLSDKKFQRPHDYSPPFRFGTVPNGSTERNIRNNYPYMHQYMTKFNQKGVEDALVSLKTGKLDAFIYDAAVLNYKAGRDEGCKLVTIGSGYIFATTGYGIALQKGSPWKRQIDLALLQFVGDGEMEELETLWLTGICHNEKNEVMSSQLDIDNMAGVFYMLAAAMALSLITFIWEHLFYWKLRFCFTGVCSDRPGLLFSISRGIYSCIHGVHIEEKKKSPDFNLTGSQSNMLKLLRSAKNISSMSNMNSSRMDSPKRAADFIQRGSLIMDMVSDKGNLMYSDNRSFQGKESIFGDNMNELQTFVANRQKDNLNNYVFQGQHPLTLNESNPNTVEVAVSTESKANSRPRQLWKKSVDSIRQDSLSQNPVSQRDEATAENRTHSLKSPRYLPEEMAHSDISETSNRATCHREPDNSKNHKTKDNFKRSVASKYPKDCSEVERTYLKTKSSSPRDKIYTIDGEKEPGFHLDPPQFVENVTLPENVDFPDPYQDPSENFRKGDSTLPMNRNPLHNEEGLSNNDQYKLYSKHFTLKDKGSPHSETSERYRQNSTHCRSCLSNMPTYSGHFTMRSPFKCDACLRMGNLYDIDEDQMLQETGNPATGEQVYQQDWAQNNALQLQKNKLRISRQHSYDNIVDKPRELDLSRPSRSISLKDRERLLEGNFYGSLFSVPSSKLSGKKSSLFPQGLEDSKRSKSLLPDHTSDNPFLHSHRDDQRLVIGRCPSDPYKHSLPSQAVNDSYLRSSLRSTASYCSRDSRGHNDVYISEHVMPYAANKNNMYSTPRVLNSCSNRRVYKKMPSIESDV

SMILES | Microsomal (Rat): percent of compound remaining [1] [%] | EC50 (NMDAR2B) [nM] | EC50 (NMDAR2A) [nM] | NMDAR2A A: % maximal [3H]MK-801 binding relative to 1 mM glycine (NMDAR2A) | Plasma (Rat): percent of compound remaining (Plasma stability (Rat)) [%] | Tmax [2, 5] [min] | AUC(0-t) [2, 6] [ng·h/mL] | bioavailability [2, 7] [%] | Cmax [2, 8] [ng/mL] | CSF Cmax ([2]; per os, 10 mg/kg) [ng/mL] | Brain Cmax ([2]; per os, 10 mg/kg) [ng/mL] | Microsomal (Human): percent of compound remaining [3] [%] | Plasma (Human): percent of compound remaining (Plasma stability (Human)) [%] | AUC(0-t) ([4]; Sprague-Dawley, in vivo, iv) [ng·h/mL] | clearance ([4]; Sprague-Dawley, in vivo, iv) [mL/min/kg] | half-life ([4]; Sprague-Dawley, in vivo, iv) [min] | Cmax [4, 9] [ng/mL] | Vd ([4]; Sprague-Dawley, in vivo, iv) [L/kg] | Emax (NMDAR2B) [%] | Emax (NMDAR2A) [%] | other results
CC(C)C(=O)N1CCC2(CCCN2C(=O)C(C)C)C1=O (single isomer, unassigned) [GU-1, 1,1′-(6-oxo-1,7-diazaspiro[4.4]nonane-1,7-diyl)bis(2-methylpropan-1-one)] | 94 | < 1 |  | 0% | 89 | 15 | 2100 | 37 | 4620 | 0 | 0 | 96 | 82 | 1140 | 29.3 | 10.8 | 5850 | 0.36 | < 100 |  | 
O=C1NCCCC12CCCCN2 (single isomer, unassigned) [AY, 1,8-diazaspiro[5.5]undecan-7-one] | 114 | < 1 | < 1 | + (<100%=+) | 107 |  |  |  |  | 701.8 | 799.5 | 97 | 104 |  |  |  |  |  |  |  | NMDAR2B A: % maximal [3H]MK-801 binding relative to 1 mM glycine (NMDAR2B): + (<100%=+); % F ([2]; per os 10 mg/kg): 79%; AUC(0-last) ([2]; per os, 10 mg/kg, plasma): 6528.55 ng·h/mL; Cmax ([2]; per os, 10 mg/kg, plasma): 3038.07 ng/mL; Tmax ([2]; per os, 10 mg/kg, plasma): 60 min; AUClast [4]: 1658.09 ng·h/mL; Cl [4]: 20.15 mL/min/kg; Cmax [4]: 1552.63 ng/mL; T1/2 [4]: 9.65 h; Vss [4]: 3.88 L/kg
O=C1NCCCCC12CCCCN2 (single isomer, unassigned) [AZ, 1,8-diazaspiro[5.6]dodecan-7-one] | 91 | < 1 | < 1 |  | 101 | 60 | 74300 | 97 | 29100 | 5343.89 | 8074.7 | 92 | 101 | 15400 | 2.17 | 255 | 17900 | 0.17 | < 100 | < 100 | 
O=C1NCCCCC12CCCNC2 (single isomer, unassigned) [CF, 2,8-diazaspiro[5.6]dodecan-7-one] | 88 | < 1 | < 1 |  | 91 | 120 | 1830 | 33 | 556 | 51.64 | 48.22 | 91 | 107 | 1110 | 29.9 | 108 | 1990 | 2.85 | < 100 | < 100 | 
NC(=O)CN1CCCC12CC=CCNC2=O (single isomer, unassigned) [GQ-1, 2-(6-oxo-1,7-diazaspiro[4.6]undec-9-en-1-yl)acetamide] | 87 | ≥ 1 | < 1 |  | 98 |  |  |  |  |  |  | 88 | 98 |  |  |  |  |  | > 100 | < 100 | 

More lines, main results first:

Microsomal (Rat): percent of compound remaining [1] [%] | EC50 (NMDAR2B) [nM] | EC50 (NMDAR2A) [nM] | NMDAR2A A: % maximal [3H]MK-801 binding relative to 1 mM glycine (NMDAR2A) | Plasma (Rat): percent of compound remaining (Plasma stability (Rat)) [%] | Tmax [2, 5] [min] | AUC(0-t) [2, 6] [ng·h/mL] | bioavailability [2, 7] [%] | Cmax [2, 8] [ng/mL] | CSF Cmax ([2]; per os, 10 mg/kg) [ng/mL] | Brain Cmax ([2]; per os, 10 mg/kg) [ng/mL] | Microsomal (Human): percent of compound remaining [3] [%] | Plasma (Human): percent of compound remaining (Plasma stability (Human)) [%] | AUC(0-t) ([4]; Sprague-Dawley, in vivo, iv) [ng·h/mL] | clearance ([4]; Sprague-Dawley, in vivo, iv) [mL/min/kg] | half-life ([4]; Sprague-Dawley, in vivo, iv) [min] | Cmax [4, 9] [ng/mL] | Vd ([4]; Sprague-Dawley, in vivo, iv) [L/kg] | Emax (NMDAR2B) [%] | Emax (NMDAR2A) [%] | SMILES | other results
102 | < 1 | < 1 | + (<100%=+) | 104 | 25.2 | 150 | 9 | 132 | 205.53 | 97.39 | 114 | 99 | 326 | 101 | 19.2 | 976 | 2.25 |  |  | CC(C)CN1CCCC12CC=CCNC2=O (single isomer, unassigned) [GI-2, 1-isobutyl-1,7-diazaspiro[4.6]undec-9-en-6-one] | NMDAR2B A: % maximal [3H]MK-801 binding relative to 1 mM glycine (NMDAR2B): + (<100%=+)
3 | < 1 | < 1 |  | 96 | 34.8 | 9.16 | 1 | 23.3 | 0 | 0 | 72 | 101 | 210 | 157 | 39.6 | 421 | 6.5 | < 100 | < 100 | CN1CC=CCC2(CCCN2Cc2ccccc2)C1=O (single isomer, unassigned) [GT-1, 1-benzyl-7-methyl-1,7-diazaspiro[4.6]undec-9-en-6-one] | 
0 | < 1 | ≥ 1 | + (<100%=+) | 99 |  |  |  |  |  |  | 90 | 98 |  |  |  |  |  |  |  | O=C1N(Cc2ccccc2)CC=CCC12CCCN2 (single isomer, unassigned) [GS-2, 7-benzyl-1,7-diazaspiro[4.6]undec-9-en-6-one] | NMDAR2B A: % maximal [3H]MK-801 binding relative to 1 mM glycine (NMDAR2B): + (<100%=+)
11 | < 1 | < 1 |  | 100 |  |  |  |  |  |  | 83 | 105 |  |  |  |  |  | < 100 | < 100 | O=C1NCC=CCC12CCCN2Cc1ccc(F)cc1 (single isomer, unassigned) [GJ-1, 1-(4-fluorobenzyl)-1,7-diazaspiro[4.6]undec-9-en-6-one] | 
0 | < 1 | < 1 |  | 95 |  |  |  |  |  |  | 99 | 97 |  |  |  |  |  | < 100 | < 100 | O=C1N(Cc2ccccc2)CC=CCC12CCCN2 (single isomer, unassigned) [GS-1, 7-benzyl-1,7-diazaspiro[4.6]undec-9-en-6-one] | 
